This note sets out measurements from PubChem BioAssay AID180 (DTP/NCI, 2004).

In this test the test system is BDF1 mice, Adenocarcinoma 755 s.c., tumor weight T/C. Briefly: NCI In Vivo Anticancer Drug Screen. Data for tumor model Adenocarcinoma 755 (subcutaneous) in B6D2F1 (BDF1) mice. The settings on record: endpoint: mean tumor weight, schedule: Q01DX011 (ip), higher = larger tumour. The gist of the method:
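Compound activity was tested in mice carrying transplanted tumors. Survival or tumor size was measured, and each value is the treated-group measurement divided by that of the vehicle-treated control group (T/C).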

Setting [1] is: dose: 25.0 mg/kg/injection, vehicle: methylcellulose (MC).
The mark [2] stands for this setting: dose: 75.0 mg/kg/injection, vehicle: methylcellulose (MC).

SMILES strings stand for the structures. Values joined by “and” are separate entries in the source; they are usually repeats but may differ in a detail not shown here. Equal entries are not always repeated.

As for `O=C(O)Cn1cccc1`, the T/C by setting is: (dose: 250.0 mg/kg/injection, vehicle: other) 80 % of control; (dose: 500.0 mg/kg/injection, vehicle: other) 98 % of control; (dose: 4000.0 mg/kg/injection, vehicle: other) 70 % of control.

On to `NC(N)=N/N=C/c1c(O)ccc2ccccc12`, for which the T/C (dose: 12.5 mg/kg/injection, vehicle: saline) was 77 % of control; the T/C (dose: 25.0 mg/kg/injection, vehicle: saline) was 67 % of control; the T/C (dose: 50.0 mg/kg/injection, vehicle: saline) is 54 % of control.

With `Cc1ccc(S(=O)(=O)OCCC(=O)N2CCN(C(=O)CCOS(=O)(=O)c3ccc(C)cc3)CC2)cc1`, the T/C (dose: 22.0 mg/kg/injection, vehicle: methylcellulose (MC)) is 57 % of control; the T/C (dose: 43.0 mg/kg/injection, vehicle: methylcellulose (MC)) is 47 % of control; the T/C (dose: 87.0 mg/kg/injection, vehicle: methylcellulose (MC)) was 80 % of control; the T/C (dose: 175.0 mg/kg/injection, vehicle: methylcellulose (MC)) was 60 % of control.

In the case of `O=P(N1CCCCC1)(N1CC1)N1CC1`, the T/C is 68 % of control (dose: 1.8 mg/kg/injection, vehicle: carboxymethylcellulose (CMC)); 44 % of control (dose: 1.8 mg/kg/injection, vehicle: saline); 92 % of control (dose: 3.5 mg/kg/injection, vehicle: carboxymethylcellulose (CMC)); 38 % of control (dose: 3.5 mg/kg/injection, vehicle: saline); 15 % of control (dose: 7.0 mg/kg/injection, vehicle: saline); 45 % of control (dose: 14.0 mg/kg/injection, vehicle: carboxymethylcellulose (CMC)).

`Fc1cccc(CSc2ncnc3c2ncn3C2CCCS2)c1` (stereo unspecified): the T/C reads like this: under setting [1], 61 % of control; under setting [2], 62 % of control; (dose: 225.0 mg/kg/injection, vehicle: methylcellulose (MC)) 32 % of control.

With `O=[N+]([O-])c1ccc(C=Nc2ccc3c(c2)C(Br)c2ccccc2-3)cc1` (stereo unspecified), the T/C (dose: 28.0 mg/kg/injection, vehicle: saline) is 113 % of control; the T/C (dose: 55.0 mg/kg/injection, vehicle: saline) was 96 % of control; the T/C (dose: 110.0 mg/kg/injection, vehicle: saline) was 73 % of control; the T/C (dose: 220.0 mg/kg/injection, vehicle: saline) is 40 % of control and 44 % of control; the T/C (dose: 440.0 mg/kg/injection, vehicle: saline) was 39 % of control.

Regarding `OC(CN1CCCCC1)c1ccc(/C=C/c2ccc(Cl)cc2)cc1` (stereo unspecified), the T/C was 40 % of control (dose: 118.0 micrograms/kg/injection, vehicle: methylcellulose (MC)); 55 % of control (dose: 237.0 micrograms/kg/injection, vehicle: methylcellulose (MC)); 49 % of control (dose: 475.0 micrograms/kg/injection, vehicle: methylcellulose (MC)).

As to `Cn1c(=O)c2c(nc(/N=C/c3ccccc3)n2C)n(C)c1=O`, under setting [1], the T/C was 51 % of control.

Take `c1nc(SCCSc2ncnc3nc[nH]c23)c2[nH]cnc2n1`: the T/C (dose: 4.6 mg/kg/injection, vehicle: methylcellulose (MC)) is 93 % of control; the T/C (dose: 9.3 mg/kg/injection, vehicle: methylcellulose (MC)) is 86 % of control; the T/C (dose: 18.7 mg/kg/injection, vehicle: methylcellulose (MC)) was 74 % of control; the T/C under setting [2] was 1 % of control; the T/C (dose: 150.0 mg/kg/injection, vehicle: methylcellulose (MC)) was 2 % of control.

Consider `Clc1ncnc2c1ncn2C1CCCO1` (stereo unspecified), for which the T/C runs as follows: (dose: 2.34 mg/kg/injection, vehicle: methylcellulose (MC)) 50 % of control; (dose: 4.68 mg/kg/injection, vehicle: methylcellulose (MC)) 68 % of control; (dose: 9.37 mg/kg/injection, vehicle: methylcellulose (MC)) 69 % of control; (dose: 18.75 mg/kg/injection, vehicle: methylcellulose (MC)) 41 % of control; (dose: 37.5 mg/kg/injection, vehicle: methylcellulose (MC)) 9 % of control; under setting [2], 1 % of control.

Turning to `CCOC(=O)CCCc1ccc(N=NN(C)C(C)CC)cc1` (stereo unspecified), the T/C is 64 % of control (dose: 62.0 mg/kg/injection, vehicle: carboxymethylcellulose (CMC)); 71 % of control (dose: 125.0 mg/kg/injection, vehicle: carboxymethylcellulose (CMC)); 14 % of control (dose: 250.0 mg/kg/injection, vehicle: carboxymethylcellulose (CMC)).

Consider `Cc1cccc(Nc2c(N)nc(N)nc2N)c1`, for which the T/C runs as follows: (dose: 11.0 mg/kg/injection, vehicle: carboxymethylcellulose (CMC)) 50 % of control; (dose: 22.0 mg/kg/injection, vehicle: carboxymethylcellulose (CMC)) 61 % of control; (dose: 44.0 mg/kg/injection, vehicle: carboxymethylcellulose (CMC)) 32 % of control; (dose: 88.0 mg/kg/injection, vehicle: carboxymethylcellulose (CMC)) 48 % of control.

As a reminder, the T/C is the ratio of treated to control.
